This note sets out measurements from US20210395239A1 (Hoffmann-La Roche Inc., priority 2018, published 2021).

The target in the test is T1, hTLR9 (Homo sapiens, UniProt Q9NR96).
T1 sequence (Q9NR96 26-1032): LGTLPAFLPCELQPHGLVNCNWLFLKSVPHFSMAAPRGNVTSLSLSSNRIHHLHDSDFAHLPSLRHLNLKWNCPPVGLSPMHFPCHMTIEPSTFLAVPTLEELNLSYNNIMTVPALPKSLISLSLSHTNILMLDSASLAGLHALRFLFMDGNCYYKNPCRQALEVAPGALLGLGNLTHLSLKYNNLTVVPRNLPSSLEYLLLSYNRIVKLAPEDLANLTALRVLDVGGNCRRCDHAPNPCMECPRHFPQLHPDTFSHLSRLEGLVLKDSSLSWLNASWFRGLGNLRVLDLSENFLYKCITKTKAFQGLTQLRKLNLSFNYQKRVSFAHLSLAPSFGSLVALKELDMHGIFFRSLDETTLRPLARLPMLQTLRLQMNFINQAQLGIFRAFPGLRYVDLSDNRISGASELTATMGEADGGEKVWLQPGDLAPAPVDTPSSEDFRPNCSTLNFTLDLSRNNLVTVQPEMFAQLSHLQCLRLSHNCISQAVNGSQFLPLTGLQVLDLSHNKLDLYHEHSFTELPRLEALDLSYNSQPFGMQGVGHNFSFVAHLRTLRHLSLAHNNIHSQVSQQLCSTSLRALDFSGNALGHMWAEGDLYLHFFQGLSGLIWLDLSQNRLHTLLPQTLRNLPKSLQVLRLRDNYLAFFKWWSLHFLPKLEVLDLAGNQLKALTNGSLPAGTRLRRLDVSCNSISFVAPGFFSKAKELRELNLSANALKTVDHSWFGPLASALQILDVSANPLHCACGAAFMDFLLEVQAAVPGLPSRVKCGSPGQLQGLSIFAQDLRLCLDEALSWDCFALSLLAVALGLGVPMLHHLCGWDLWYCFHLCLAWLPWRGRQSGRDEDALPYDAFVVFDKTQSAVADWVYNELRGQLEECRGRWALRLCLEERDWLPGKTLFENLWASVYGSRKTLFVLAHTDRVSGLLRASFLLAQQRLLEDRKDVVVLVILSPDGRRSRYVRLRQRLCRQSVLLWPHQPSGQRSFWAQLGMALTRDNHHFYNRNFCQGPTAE
The test is described as follows: HEK293-Blue-hTLR-9 cells assay (SEAP reporter, ODN2006 stimulation). It is filed as cell-based. The arrangement: host or cells: HEK293 (HEK-Blue hTLR9). As to conditions: HEK293-Blue-hTLR9 cells, ODN2006, 20 hrs; read-out: HEK/hTLR9 IC50. In a few lines: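 Antagonism read as lowered SEAP reporter absorbance (620–655 nm, QUANTI-Blue, 2 h, 37 °C) in supernatants. Before that, ODN2006-stimulated HEK293-Blue cells stably expressing human TLR9 were exposed to compound dilutions at 1% final DMSO for 20 h at 37 °C.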
`Cc1ccc(N2C[C@H](CN3CCN(c4ccnc(N5CC(N)C5)n4)CC3)O[C@H](C)C2)c2nccnc12` [Example 130, 1-[4-[4-[[(2S,6R)-6-methyl-4-(8-methylquinoxalin-5-yl)morpholin-2-yl]methyl]piperazin-1-yl]pyrimidin-2-yl]azetidin-3-amine]: the IC50 stood at 155 nM.
As for `[2H]c1ccc2c(N3C[C@H](CN4CCN(c5ccc(N6C[C@H]7C[C@@H]6CN7)nc5)CC4)O[C@H](C)C3)ccc(C#N)c2n1` [Example 153, 2-deuterio-5-[(2S,6R)-2-[[4-[6-[(1R,4R)-2,5-diazabicyclo[2.2.1]heptan-2-yl]-3-pyridyl]piperazin-1-yl]methyl]-6-methyl-morpholin-4-yl]quinoline-8-carbonitrile], the IC50 worked out at 113 nM.
Next, `C[C@@H]1CN(c2ccc(C#N)c3ncccc23)C[C@H](CN2CCN(c3ncc(F)c(N4CCNCC4)n3)CC2)O1` [Example 94, 5-[(2S,6R)-2-[[4-(5-fluoro-4-piperazin-1-yl-pyrimidin-2-yl)piperazin-1-yl]methyl]-6-methyl-morpholin-4-yl]quinoline-8-carbonitrile]: 51 nM; `Cc1ccc(N2C[C@H](CN3CCN(c4nccc(N5CCNCC5)n4)CC3)O[C@H](C)C2)c2nccnc12` [Example 116, (2R,6S)-2-methyl-4-(8-methylquinoxalin-5-yl)-6-[[4-(4-piperazin-1-ylpyrimidin-2-yl)piperazin-1-yl]methyl]morpholine]: 89 nM; `[2H]c1ccc2c(N3C[C@H](CN4CC(c5cnc(N6C[C@@H](N)[C@H](OC)C6)cc5C)C4)O[C@H](C)C3)ccc(C#N)c2n1` [Example 146, 5-[(2S,6R)-2-[[3-[6-[(3R,4R)-3-amino-4-methoxy-pyrrolidin-1-yl]-4-methyl-3-pyridyl]azetidin-1-yl]methyl]-6-methyl-morpholin-4-yl]-2-deuterio-quinoline-8-carbonitrile]: 31 nM.
`C[C@@H]1CN(c2ccc(C#N)c3ncccc23)C[C@H](CN2CC(c3cccc(N4CCNCC4)c3)C2)O1` [Example 4, 5-[(2R,6S)-2-methyl-6-[[3-(3-piperazin-1-ylphenyl)azetidin-1-yl]methyl]morpholin-4-yl]quinoline-8-carbonitrile]: the IC50 was determined as 68 nM.
As for `[2H]c1ccc2c(N3C[C@H](CN4CCN(c5nc(C)cc(N6C[C@@H](N)[C@H](OC)C6)n5)CC4)O[C@H](C)C3)ccc(C#N)c2n1` [Example 144, 5-[(2S,6R)-2-[[4-[4-[(3R,4R)-3-amino-4-methoxy-pyrrolidin-1-yl]-6-methyl-pyrimidin-2-yl]piperazin-1-yl]methyl]-6-methyl-morpholin-4-yl]-2-deuterio-quinoline-8-carbonitrile], the IC50 came to 31 nM.
Take `CO[C@@H]1CN(c2nccc(N3CCN(C[C@H]4CN(c5ccc(C#N)c6ncccc56)C[C@@H](C)O4)CC3)n2)C[C@@H]1N` [Example 92, 5-[(2S,6R)-2-[[4-[2-[(3S,4R)-3-amino-4-methoxy-pyrrolidin-1-yl]pyrimidin-4-yl]piperazin-1-yl]methyl]-6-methyl-morpholin-4-yl]quinoline-8-carbonitrile]: the IC50 was found to be 42 nM.
On to `C[C@@H]1CN(c2ccc(C#N)c3ncccc23)C[C@H](CN2CCN(c3cnc(N4CCNCC4)cn3)CC2)O1` [Example 6, 5-[(2R,6S)-2-methyl-6-[[4-(5-piperazin-1-ylpyrazin-2-yl)piperazin-1-yl]methyl]morpholin-4-yl]quinoline-8-carbonitrile], for which the IC50 is 120 nM.
Under `[2H]c1ccc2c(N3C[C@H](CN4CCN(c5ccc(N6C[C@@H]7C[C@H]6CN7)nc5)CC4)O[C@H](C)C3)ccc(C#N)c2n1` [Example 151, 2-deuterio-5-[(2S,6R)-2-[[4-[6-[(1S,4S)-2,5-diazabicyclo[2.2.1]heptan-2-yl]-3-pyridyl]piperazin-1-yl]methyl]-6-methyl-morpholin-4-yl]quinoline-8-carbonitrile] stands 96 nM.
